Key:
[1] = hygroscopicity; type: physicochemical
[2] = resistance to thermal degradation; type: physicochemical

hygroscopicity [1]: essentially non-hygroscopic | thermal degradation [2]: resistance to thermal degradation
SMILES: C#Cc1cccc(Nc2ncnc3cc(OCCOC)c(OCCOC)cc23)c1.CS(=O)(=O)O [Polymorph C, N-(3-ethynylphenyl)-6,7-bis(2-methoxyethoxy)-4-quinazolinamine Mesylate Salt]

Reference: patent publication US6706721B1, “N-(3-ethynylphenylamino)-6,7-bis(2-methoxyethoxy)-4-quinazolinamine mesylate anhydrate and monohydrate” (OSI Pharmaceuticals, Inc., priority 1998, dated 2004)
